From ChEMBL document CHEMBL1148279, “Effects of bisphosphonates on the growth of Entamoeba histolytica and Plasmodium species in vitro and in vivo” (J Med Chem, 2004)
pIC50: −log10 of the molar value.

Tests used:
[1] = Therapeutic index was expressed as ratio of LD50 for KB cell line to IC50 against Entamoeba histolytica; type: cell-based; settings: human, KB cells; read-out: TI
[2] = test system: Entamoeba histolytica; assay: In vitro growth inhibition against Entamoeba histolytica; type: functional, organism-based
[3] = test system: Plasmodium falciparum; assay: microbe, parasite or virus in culture
Description: In vitro growth inhibition against Plasmodium falciparum

[4] = Therapeutic index was expressed as ratio of LD50 for KB cell line to IC50 against Plasmodium falciparum; type: cell-based; settings: human, KB cells; read-out: TI
[5] = in vitro; settings: human, KB cells (nasopharyngeal carcinoma)
Description: Toxicity evaluated against human nasopharyngeal carcinoma KB cell line

[6] = Inhibitory activity against Entamoeba histolytica pyrophosphate-dependent phosphofructokinase (PFK); type: functional
[7] = test system: Mus musculus; assay: Mean reduction in parasitaemia of Plasmodium berghei ANKA suppressive test in mice (Mus musculus) (in vivo) at 10 mg/kg scheduled for 4 days; type: functional
[8] = test system: Mus musculus; assay: Mean reduction in parasitaemia of Plasmodium berghei ANKA suppressive test in mice (Mus musculus) (in vivo) at 25 mg/kg scheduled for 4 days; type: functional
[9] = test system: Cricetinae gen. sp.; assay: Percent decrease of amebic liver abscess (mg) formation in Entamoeba histolytica infected hamsters (treated at 10 mg/kg ip once a day for 5 days); type: functional; settings: route intraperitoneal
[10] = test system: Cricetinae gen. sp.; assay: Mean effect on amebic liver abscess (mg) formation in Entamoeba histolytica infected hamsters (treated at 10 mg/kg ip once a day for 5 days); type: functional, Cricetulus griseus; settings: route intraperitoneal
[11] = test system: Cricetinae gen. sp.; assay: Mean effect on normal liver weight (mg) in Entamoeba histolytica infected hamsters (treated at 10 mg/kg ip once a day for 5 days); type: functional, Cricetulus griseus; settings: route intraperitoneal
[12] = test system: Cricetinae gen. sp.; assay: Percent decrease of normal liver weight (mg) in Entamoeba histolytica infected hamsters (treated at 10 mg/kg ip once a day for 5 days); type: functional, Cricetulus griseus; settings: route intraperitoneal
[13] = test system: Mus musculus; assay: Mean reduction in parasitaemia of Plasmodium berghei ANKA suppressive test in mice (Mus musculus) (in vivo) at 10 mg/kg scheduled for 2 days; type: functional
[14] = test system: Plasmodium falciparum; assay: Inhibitory activity against Plasmodium falciparum 3D7
[15] = test system: Plasmodium falciparum; assay: Inhibitory activity against Plasmodium falciparum Ghana
[16] = test system: Plasmodium falciparum; assay: Inhibitory activity against Plasmodium falciparum W2
[17] = Inhibitory activity against Entamoeba histolytica pyrophosphate-dependent phosphofructokinase (PFK) (Range is 900-1000); type: functional
[18] = Inhibitory activity against Entamoeba histolytica pyrophosphate-dependent phosphofructokinase (PFK) (Range is 2500-3000); type: functional

Compound | selectivity ratio [1] | pIC50 [2] | pIC50 [3] | selectivity ratio [4] | CC50 [5] | other results
CCCCCCc1ccc(NC(P(=O)(O)O)P(=O)(O)O)cc1 | 2.83 | 3.88 | 4.33 | 8.06 | 373 µM | 
CCCCCCNC(P(=O)(O)O)P(=O)(O)O [(HEXYLAMINO)METHYLENEDIPHOSPHONIC ACID] |  | < 3.70 | 4.25 | > 17.1 | > 966 µM | 
CCCCOc1ccc(NC(P(=O)(O)O)P(=O)(O)O)cc1 | 52.7 | 5.40 | < 3.70 |  | 210 µM | 
CN(CCCc1ccccc1)CCC(O)(P(=O)(O)O)P(=O)(O)O | 8.4 | 4.35 | 4.64 | 16.6 | 379 µM | 
CCCCCCCCCCCCCC(O)(P(=O)(O)O)P(=O)(O)O | 0.5 | 4.13 | 5.67 | 17.4 | 36.8 µM | 
O=P(O)(O)C(O)(Cc1cccnc1)P(=O)(O)O [RISEDRONIC ACID] |  | 4.13 |  |  |  | pIC50 [6]: < 2.52
O=P(O)(O)C(NC1CC1)P(=O)(O)O [(CYCLOPROPYLAMINO)METHYLENEDIPHOSPHONIC ACID] | 2.18 | 3.95 | < 3.70 |  | 246 µM | 
CCCCCCCCNC(P(=O)(O)O)P(=O)(O)O [(OCTYLAMINO)METHYLENEDIPHOSPHONIC ACID] | 2.15 | 4.51 | 4.88 | 5.02 |  | pIC50 [6]: < 2.52
CCN(CC)CCCC(C)Nc1ccnc2cc(Cl)ccc12 (configuration not stated) [CHLOROQUINE] |  |  |  |  |  | Reduction [7]: 100%
O=P(O)(O)C(O)(CCNCCCCc1ccccc1)P(=O)(O)O | > 35.5 | 4.69 | < 3.70 |  | > 727 µM | 
CN(CCc1ccccc1)CCC(O)(P(=O)(O)O)P(=O)(O)O | > 5.2 | 3.84 | 4.47 | > 22 | > 739 µM | 
CCC(C)CNC(P(=O)(O)O)P(=O)(O)O (configuration not stated) | 2.92 | 3.87 | < 3.70 |  | 394 µM | 
O=P(O)(O)C(N1CCc2ccccc2C1)P(=O)(O)O | > 13 | 4.15 |  |  | > 922 µM | 
O=P(O)(O)C(Nc1ccc(O)nc1)P(=O)(O)O | 2.67 | 4.02 | 3.71 | 1.3 | 257 µM | 
O=P(O)(O)C(Nc1cccnc1)P(=O)(O)O | 13 | 4.22 | < 3.70 |  | 782 µM | 
CC(C)CCNC(P(=O)(O)O)P(=O)(O)O [(ISOPENTYLAMINO)METHYLENEDIPHOSPHONIC ACID] | 13 | 4.43 | < 3.70 |  | 480 µM | 
CCCCCCCCCCCC(O)(P(=O)(O)O)P(=O)(O)O |  | 4.20 | 5.97 |  |  | pIC50 [6]: 4.40
O=P(O)(O)C(NC1CCCC1)P(=O)(O)O [(CYCLOPENTYLAMINO)METHYLENEDIPHOSPHONIC ACID] | 17.5 | 4.44 | < 3.70 |  | 629 µM | 
CCCCCCC(CCCC)C(O)(P(=O)(O)O)P(=O)(O)O (configuration not stated) | 19.1 | 4.91 | < 3.70 |  | 228 µM | pIC50 [6]: 3.00
O=P(O)(O)C(Nc1ccc(I)cn1)P(=O)(O)O | 11.8 | 4.40 | < 3.70 |  | 466 µM | 
NCCC(O)(P(=O)(O)O)P(=O)(O)O [PAMIDRONIC ACID] |  | < 3.70 |  |  |  | Reduction [8]: 5%
CCCCC(O)(P(=O)(O)O)P(=O)(O)O |  | < 3.70 |  | > 18.4 | > 1040 µM | 
CCCCCNC(P(=O)(O)O)P(=O)(O)O [(PENTYLAMINO)METHYLENEDIPHOSPHONIC ACID] |  | < 3.70 | 5.32 | > 240 | > 1150 µM | 

Compound | selectivity ratio [1] | pIC50 [2] | pIC50 [3] | selectivity ratio [4] | CC50 [5] | other results
O=P(O)(O)C(Nc1ccc(-c2ccccc2)cc1)P(=O)(O)O | 56.5 | 5.06 | 4.12 | 6.46 | 495 µM | 
CCCCCC(C)NC(P(=O)(O)O)P(=O)(O)O (configuration not stated) | > 15.1 | 4.19 | 3.99 | > 9.64 | > 989 µM | 
CN(CCOc1ccccc1)CCC(O)(P(=O)(O)O)P(=O)(O)O |  | 5.19 | 4.50 |  | 312 µM | Decrease [9]: -19%; Mean effect [10]: 1058 mg; Mean effect [11]: 2295 mg; Decrease [12]: 3%
O=P(O)(O)C(Nc1cc(Br)cc(Br)n1)P(=O)(O)O | 18.2 | 4.55 | < 3.70 |  | 520 µM | Decrease [9]: 14%; Mean effect [10]: 767 mg; Mean effect [11]: 2883 mg; Decrease [12]: -22%
CCCCN(CC)C(P(=O)(O)O)P(=O)(O)O [(BUTYL(ETHYL)AMINO)METHYLENEDIPHOSPHONIC ACID] | > 22.3 | 4.33 | < 3.70 |  | > 1060 µM | 
CC(C)N(C(C)C)C(P(=O)(O)O)P(=O)(O)O [(DIISOPROPYLAMINO)METHYLENEDIPHOSPHONIC ACID] | 4.39 | 3.71 | < 3.70 |  | 852 µM | 
CCCCCCCCCCCCCCCC(O)(P(=O)(O)O)P(=O)(O)O | > 16.6 | 4.36 | 4.54 | > 25.3 | > 729 µM | 
CC(C)(C)c1cc(NC(P(=O)(O)O)P(=O)(O)O)cc(C(C)(C)C)c1 | 33 | 4.72 | < 3.70 |  | 634 µM | 
CCN(CC)C(P(=O)(O)O)P(=O)(O)O [(DIETHYLAMINO)METHYLENEDIPHOSPHONIC ACID] | 12.9 | 4.20 | 4.05 | 8.98 |  | 
CN(CCCCc1ccccc1)CCC(O)(P(=O)(O)O)P(=O)(O)O |  | 4.63 | 5.54 |  | > 690 µM | Decrease [9]: 89%; Mean effect [10]: 94 mg; Mean effect [11]: 1756 mg; Decrease [12]: 26%
O=P(O)(O)C(N1CCOCC1)P(=O)(O)O [MORPHOLINOMETHYLENEDIPHOSPHONIC ACID] |  | < 3.70 | 4.74 | 52.4 | 964 µM | 
O=P(O)(O)C(Nc1cccc(-c2ccccc2)c1)P(=O)(O)O |  | 5.18 | < 3.70 |  | 749 µM | Decrease [9]: 36%; Mean effect [10]: 570 mg; pIC50 [6]: 4.05; Mean effect [11]: 2459 mg; Decrease [12]: -4%
CCCCc1ccc(NC(P(=O)(O)O)P(=O)(O)O)cc1 | 1.62 | 3.76 | 4.50 | 8.89 | 278 µM | 
O=P(O)(O)C(NCCCc1ccccc1)P(=O)(O)O | > 62.2 | 4.81 | < 3.70 |  | > 970 µM | 
CCCCCCCCCC(O)(P(=O)(O)O)P(=O)(O)O |  | 4.88 | 6.08 |  | > 775 µM | pIC50 [6]: 4.15; Reduction [13]: 75%; pIC50 [14]: 6.08; pIC50 [15]: 5.70; pIC50 [16]: 6.00
O=P(O)(O)C(Nc1ccc(Cl)nc1)P(=O)(O)O | > 45.7 | 4.66 | < 3.70 |  | > 992 µM | 
CCCCCCCCCNC(P(=O)(O)O)P(=O)(O)O [(NONYLAMINO)METHYLENEDIPHOSPHONIC ACID] | > 6.76 | 3.87 | 3.95 | > 8.18 | > 919 µM | 
Cc1cc(C)nc(NC(P(=O)(O)O)P(=O)(O)O)c1 | 3.58 | 3.75 | < 3.70 |  | 633 µM | 
O=P(O)(O)C(O)(Cc1ccccc1)P(=O)(O)O |  | < 3.70 |  | > 121 | > 931 µM | pIC50 [17]: 3.00; Reduction [8]: 64%
O=P(O)(O)C(NC1CCCCCCC1)P(=O)(O)O [(CYCLOOCTYLAMINO)METHYLENEDIPHOSPHONIC ACID] | 22.9 | 4.81 | < 3.70 |  | 354 µM | 
O=P(O)(O)C(O)(CSc1ccncc1)P(=O)(O)O |  | < 3.70 |  | > 4.72 | > 746 µM | 
CCCCCCC(O)(P(=O)(O)O)P(=O)(O)O |  | 4.53 | 5.36 |  | 109 µM | pIC50 [14]: 5.36; pIC50 [18]: 2.52; Reduction [7]: 48%; pIC50 [15]: 6.30; pIC50 [16]: 6.30
CCCCCCCCCCC(O)(P(=O)(O)O)P(=O)(O)O |  | 4.96 | 5.28 |  | > 806 µM | Decrease [9]: 68%; Mean effect [10]: 285 mg; pIC50 [6]: 4.70; Mean effect [11]: 2163 mg; Decrease [12]: 9%
